{
  "source": "ChEMBL document CHEMBL5149999",
  "about": "“The Alkaloids from Lophophora diffusa and Other \"False Peyotes\"” (J Nat Prod, 2021)",
  "key": {"[1]": {"target": "Sigma intracellular receptor 2 (Homo sapiens, UniProt Q5BJF2)", "sequence (Q5BJF2 whole entry)": "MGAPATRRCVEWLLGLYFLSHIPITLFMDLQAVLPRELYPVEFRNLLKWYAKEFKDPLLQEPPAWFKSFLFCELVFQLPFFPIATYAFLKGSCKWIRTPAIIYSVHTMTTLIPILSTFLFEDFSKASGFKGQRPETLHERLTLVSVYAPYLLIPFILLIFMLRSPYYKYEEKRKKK", "experiment": "Binding affinity to sigma 2 receptor (unknown origin) assessed as dissociation constant by competitive binding assay"}, "[2]": {"target": "Sigma non-opioid intracellular receptor 1 (Homo sapiens, UniProt Q99720)", "sequence (Q99720 whole entry)": "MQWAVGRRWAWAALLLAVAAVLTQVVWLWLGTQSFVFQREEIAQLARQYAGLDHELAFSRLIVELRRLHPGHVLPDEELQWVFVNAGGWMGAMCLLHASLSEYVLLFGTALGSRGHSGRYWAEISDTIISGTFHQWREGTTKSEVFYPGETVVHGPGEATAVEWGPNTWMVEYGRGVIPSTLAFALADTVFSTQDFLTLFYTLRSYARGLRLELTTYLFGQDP", "experiment": "Binding affinity to sigma 1 receptor (unknown origin) assessed as dissociation constant by competitive binding assay"}, "[3]": {"experiment": "Drug tolerance in sc dosed dog", "type": "toxicity, organism-based, Canis lupus familiaris", "details": "in vivo"}, "[4]": {"experiment": "Acute toxicity in iv dosed mouse assessed as lethal dose incubated for 72 hrs", "type": "organism-based", "details": "in vivo"}, "[5]": {"experiment": "Acute toxicity in po dosed mouse assessed as lethal dose incubated for 72 hrs", "type": "organism-based", "details": "in vivo"}, "[6]": {"experiment": "Acute toxicity in ip dosed mouse assessed as lethal dose incubated for 24 hrs", "type": "organism-based", "details": "in vivo"}, "[7]": {"target": "Trace amine-associated receptor 1 (Mus musculus, UniProt Q923Y8)", "sequence (Q923Y8 whole entry)": "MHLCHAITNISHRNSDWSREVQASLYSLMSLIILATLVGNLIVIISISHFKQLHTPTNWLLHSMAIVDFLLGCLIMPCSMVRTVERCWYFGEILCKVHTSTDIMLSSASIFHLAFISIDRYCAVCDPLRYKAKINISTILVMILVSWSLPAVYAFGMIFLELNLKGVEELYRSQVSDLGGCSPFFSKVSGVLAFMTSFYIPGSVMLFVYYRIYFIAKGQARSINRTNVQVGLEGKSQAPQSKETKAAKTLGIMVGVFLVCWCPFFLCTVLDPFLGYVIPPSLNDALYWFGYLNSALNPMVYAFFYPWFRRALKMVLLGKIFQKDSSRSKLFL", "experiment": "Agonist activity at mouse TAAR1 stably expressed in HEK293 cells incubated for 30 mins by cAMP assay", "type": "functional, cell-based"}, "[8]": {"target": "Trace amine-associated receptor 1 (Rattus norvegicus, UniProt Q923Y9)", "sequence (Q923Y9 whole entry)": "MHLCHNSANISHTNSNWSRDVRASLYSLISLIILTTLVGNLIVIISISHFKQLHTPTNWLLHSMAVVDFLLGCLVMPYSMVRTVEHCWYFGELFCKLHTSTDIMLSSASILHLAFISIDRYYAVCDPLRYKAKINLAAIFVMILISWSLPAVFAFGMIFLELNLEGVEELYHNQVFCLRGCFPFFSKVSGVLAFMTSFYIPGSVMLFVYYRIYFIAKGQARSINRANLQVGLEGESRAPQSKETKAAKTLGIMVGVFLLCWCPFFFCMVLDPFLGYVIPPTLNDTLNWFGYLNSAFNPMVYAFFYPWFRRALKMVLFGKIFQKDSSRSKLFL", "experiment": "Agonist activity at rat TAAR1 stably expressed in HEK293 cells incubated for 30 mins by cAMP assay", "type": "functional, cell-based"}, "[9]": {"target": "T1, Trace amine-associated receptor 1 (Homo sapiens, UniProt Q96RJ0)", "T1 sequence (Q96RJ0 whole entry)": "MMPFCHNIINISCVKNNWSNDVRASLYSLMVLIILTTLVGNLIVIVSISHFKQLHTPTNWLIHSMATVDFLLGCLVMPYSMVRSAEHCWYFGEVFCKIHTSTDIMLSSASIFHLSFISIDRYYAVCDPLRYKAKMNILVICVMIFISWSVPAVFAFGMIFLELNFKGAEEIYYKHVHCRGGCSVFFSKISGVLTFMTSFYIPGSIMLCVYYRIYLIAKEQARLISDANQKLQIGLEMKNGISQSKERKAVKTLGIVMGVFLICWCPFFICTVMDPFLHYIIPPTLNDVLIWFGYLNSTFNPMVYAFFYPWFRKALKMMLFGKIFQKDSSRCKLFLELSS", "experiment": "Agonist activity at human TAAR1 stably expressed in HEK293 cells incubated for 30 mins by cAMP assay", "type": "functional, cell-based"}},
  "data": [
    {"smiles": "CNCCc1ccc(O)cc1", "values": [
      {"measurement": "Kd", "setting": "[1]", "result": 6600, "unit": "nM"},
      {"measurement": "Kd", "setting": "[2]", "result": 12400, "unit": "nM"}
    ]},
    {"smiles": "COc1cc2c(c(O)c1OC)C(C)N(C)CC2", "note": "(centres undefined)", "values": [
      {"measurement": "Activity", "setting": "[3]", "result": 50, "unit": "mg/kg"},
      {"measurement": "LD50 at 72 h", "setting": "[4]", "result": 52.2, "unit": "mg/kg"},
      {"measurement": "LD50 at 72 h", "setting": "[5]", "result": 200, "unit": "mg/kg"},
      {"measurement": "LD50 at 24 h", "setting": "[6]", "result": 115, "unit": "mg/kg"}
    ]},
    {"smiles": "NCCc1ccc(O)cc1", "note": "[TYRAMINE]", "values": [
      {"measurement": "EC50", "setting": "[7]", "result": 280, "unit": "nM"},
      {"measurement": "EC50", "setting": "[8]", "result": 30, "unit": "nM"},
      {"measurement": "EC50", "setting": "[9]", "result": 990, "unit": "nM"}
    ]}
  ]
}
